Results published in publication PMC6222509, “Dibasic Derivatives of Phenylcarbamic Acid against Mycobacterial Strains: Old Drugs and New Tricks?” (Molecules : A Journal of Synthetic Chemistry and Natural …, 2018).
Converted amounts (≈) assume the structure as drawn. Where two headings read alike, the source gives them in different places.

Tests used:
[1] = lipophilicity by isocratic RP-HPLC (log k, k, log kw, S); format: physicochemical; conditions: for log kw: extrapolated to 100% water from log k versus ϕM; for S (slope): slope of log k versus ϕM regression
From the text: Octadecyl-functionalized silica gel was currently used as a stationary phase (SPh) and a […] of two solvents at different volume ratios modified retention properties of the SPh. Liquid binary mixtures of methanol (MeOH) with water were employed as mobile phases (MPhs) in the isocratic RP-HPLC. The MeOH modifier was preferred because of similarity of both observed and extrapolated lipophilicity parameters with the ones determined in the octan-1-ol/water partition system, considering also sensitivity to H-bond donor properties of investigated compounds [41].
The modifier was applied in different volume concentrations, which varied from […] (v/v) with 5% increments. This interval was chosen due to very high lipophilicity of investigated salts. Practically, lower volume concentration of MeOH, i.e., less than 85% (v/v) in used MPhs, caused uncertainty of retention times (tr) due to notable peaks broadening, especially within subsets 1i–l and 1m–p. […] The highest tr parameters were found for the molecules 1k (tr = 47.108 min) and 1l (tr = 70.012 min) in the MPh containing 85% proportion (v/v) of MeOH (Table 2).
According to the authors’ opinions based on systematic scientific literature survey, a current research paper was the first, which aimed the log kw parameters of 2-/3-alkoxyphenylcarbamic acid derivatives containing two centers of protonation. The log kw values were extrapolated from intercepts of a relationship between log k and volume fraction of the MPh modifier (ϕM) using the Snyder–Soczewiński linear solvent strength model. The relationship was justified by R > 0.9900, Adj. R^2 > 0.9750 as well as F > 180.00 for calculation of particular log kw parameters (Table 3).
The HPLC separation module Waters e2695 equipped with a Waters 2996 PDA Detector (Waters Corp., Milford, MA, USA) and chromatographic column Symmetry C18 × 5 μm, 4.6 × 250 mm, Part No. W21751W016 (Waters Corp.) were used for estimation of lipophilic properties of the compounds 1a–p at 21 °C.
Isocratic elution was carried out using mobile phases consisting of methanol p.a. (MeOH; Honeywell, Paris, France) and purified water in various volume ratios (80:20, 85:15, 90:10, 95:5 (v/v) and pure MeOH, respectively). Distilled water (CentralChem, Bratislava, Slovak Republic) was purified by the Aquinity2 P10 ultra-pure water system for production of ultra-pure water with an integrated 10 L permeate tank (membraPure, Hennigsdorf, Germany).
Total flow of the column was 1.0 mL/min, injection volume was 4 μL and column temperature was set to 40 °C. The detection wavelengths varying from 236 nm to 238 nm were chosen for current experimental procedures.
Lipophilicity of the compounds 1a–p was determined by reversed-phase high-performance liquid chromatography (RP-HPLC). Methanol (MeOH)/water mobile phases with varying volume ratio of the organic modifier and water (80:20, 85:15, 90:10, 95:5 (v/v) and pure MeOH, respectively) were chosen.
A methanolic solution of potassium iodine was used for dead time (td) determination. Retention factors (capacity factors; k) were calculated according to Equation (17):k = (tr− td)/td(17) where tr was retention time of a solute (in min), the td parameter denoted dead time of potassium iodine, an unretained analyte (in min).
The observed retention (tr) and dead (td) times were means of three independent determinations. Average td values of potassium iodine in used MPhs were as follows: 2.237 min (MeOH/water ratio (v/v) was 80:20), 2.245 min (85:15), 2.245 min (90:10), 2.228 min (95:5) and 2.210 min (pure MeOH), respectively. […]

[2] = test system: M. avium CNCTC My 330/80 (identical with ATCC 25291; MA 330/80); assay: in vitro antimycobacterial MIC, dilution micromethod in Šula's semisynthetic medium; format: cell-based, Mycobacterium avium
[3] = test system: M. kansasii DSM 44162 (MK DSM); assay: in vitro antimycobacterial MIC, broth dilution micromethod in Middlebrook 7H9; format: cell-based; conditions: Mycobacterium kansasii, DSM 44162 / DSM 7, 168 h
[4] = test system: Mycobacterium tuberculosis CNCTC My 331/88 (identical with H37Rv and ATCC 2794; MTv H37Rv); assay: in vitro antimycobacterial MIC, dilution micromethod in Šula's semisynthetic medium; format: cell-based
[5] = test system: M. smegmatis ATCC 700084 (MS); assay: in vitro antimycobacterial MIC, broth dilution micromethod in Middlebrook 7H9; format: cell-based, Mycobacterium smegmatis; conditions: Mycolicibacterium smegmatis, ATCC700084, 72 h
[6] = test system: M. marinum CAMP 5644 (MM); assay: as above; format: cell-based, Mycobacterium marinum; conditions: Mycobacterium marinum, 504 h
[7] = test system: M. kansasii CNCTC My 235/80 (identical with ATCC 12478; MK 235/80); assay: in vitro antimycobacterial MIC, dilution micromethod in Šula's semisynthetic medium; format: cell-based, Mycobacterium kansasii
[8] = surface tension, drop count method, Traube stalagmometer; format: physicochemical; conditions: aqueous solution c = 2.0 × 10^−3 M, 21 °C; water γ = 0.07259 N/m
Protocol: Surface tension (relative surface activity; γ) of aqueous solutions of the compounds 1a–p (c = 2.0 × 10^−3 M) was determined by a drop count technique using a Traube stalagmometer. All evaluated substances were able to decrease surface tension of water (γ = 0.07259 N/m) at 21 °C.
Surface tension (relative surface activity; γ) of the derivatives 1a–p was determined by a drop count method using a glassy Traube stalagmometer (Kavalier Glass, Prague, Czech Republic). Number of drops of compounds’ and reference solutions were counted between upper and lower marks of the stalagmometer. Aqueous solutions of the molecules 1a–p were prepared with distilled, deionized water (c = 2.0 × 10^−3 M). […] The drops were allowed to form at constant temperature 21 °C. The experimental procedure was described in a paper. Current measurements were done in six replicates and average γ values (in N/m units) were reported (Table 1).

[9] = mobile phase MeOH/water 80:20 (v/v)
[10] = mobile phase MeOH/water 85:15 (v/v)
[11] = mobile phase MeOH/water 90:10 (v/v)
[12] = mobile phase MeOH/water 95:5 (v/v)
[13] = 21-day cultivation, read-out: MIC MA 330/80 21-d
[14] = Mycobacterium avium, ATCC25291, 336 h, 14-day cultivation, read-out: MIC MA 330/80 14-d
[15] = 7-day cultivation, 37 °C, read-out: MIC MK DSM 7-d
[16] = Mycobacterium tuberculosis, 336 h, 14-day cultivation, read-out: MIC MTv H37Rv 14-d
[17] = Mycobacterium tuberculosis, 504 h, 21-day cultivation, read-out: MIC MTv H37Rv 21-d
[18] = 3-day cultivation, 37 °C, read-out: MIC MS 3-d
[19] = 21-day cultivation, 28 °C, read-out: MIC MM 21-d
[20] = 14-day cultivation, read-out: MIC MK 235/80 14-d
[21] = 21-day cultivation, read-out: MIC MK 235/80 21-d
[22] = Mycobacterium kansasii, ATCC12478, 168 h, 7-day cultivation, read-out: MIC MK 235/80 7-d
[23] = Mycobacterium avium, ATCC25291, 504 h, 21-day cultivation, read-out: MIC MA 330/80 21-d
[24] = read-out: MIC MM 21-d, 21-day cultivation, 28 °C
[25] = Mycobacterium kansasii, ATCC12478, 336 h, 14-day cultivation, read-out: MIC MK 235/80 14-d
[26] = Mycobacterium kansasii, ATCC12478, 504 h, 21-day cultivation, read-out: MIC MK 235/80 21-d
[27] = read-out: MIC MS 3-d, 3-day cultivation, 37 °C

| Structure (SMILES) | log kw [1] | k (retention factor) [1, 9] | log k [1, 9] | k (retention factor) [1, 10] | log k [1, 10] | k (retention factor) [1, 11] | log k [1, 11] | k (retention factor) [1, 12] | log k [1, 12] | k (retention factor) ([1]; mobile phase pure MeOH) | log k ([1]; mobile phase pure MeOH) | S (slope) [1] | MIC [2, 14] [µM] | MIC [3, 15] [µM] | MIC [4, 16] [µM] | MIC [4, 17] [µM] | MIC [5, 18] [µM] | MIC [6, 19] [µM] | MIC [7, 22] [µM] | surface tension γ (relative surface activity) [8] [N/m] | also measured |
| --- | --- | --- | --- | --- | --- | --- | --- | --- | --- | --- | --- | --- | --- | --- | --- | --- | --- | --- | --- | --- | --- |
| CCCCCCCOc1cccc(NC(=O)OC(CN(CCC)CCC)CN2CCCCCC2)c1.O=C(O)C(=O)O (stereo not drawn) [1l, 1-[2-[({[3-(hept-yloxy)phenyl]amino}carbonyl)oxy]-3-(dipropylammonio)propyl]azepanium oxalate] | 5.8966 | 30.4159 | 1.4831 | 16.4135 | 1.2152 | 9.1601 | 0.9619 | 4.2374 | 0.6271 | 2.5096 | 0.3996 | 5.5102 | 32 | 382 | 4 | 8 | 382 | 191 | 16 | 0.05853 | MIC [2, 13]: 62.5 µM; MIC [7, 20]: 32 µM; MIC [7, 21]: 32 µM |
| CCCCOc1cccc(NC(=O)OC(CN(CCC)CCC)CN2CCCCCC2)c1 (stereo not drawn) [1m] | 4.7099 | 6.0325 | 0.7805 | 3.1060 | 0.4922 | 1.8599 | 0.2695 | 1.1026 | 0.0424 | 0.5922 | −0.2275 | 4.9316 | 16 (≈ 7.16 µg/mL) | 7.7 (≈ 3.45 µg/mL) | 8 (≈ 3.58 µg/mL) | 16 (≈ 7.16 µg/mL) | 30.7 (≈ 13.7 µg/mL) |  | 16 (≈ 7.16 µg/mL) | 0.06298 | MIC [2, 23]: 32 µM (≈ 14.3 µg/mL); MIC [6, 24]: 15.4 µM (≈ 6.89 µg/mL); MIC [7, 25]: 16 µM (≈ 7.16 µg/mL); MIC [7, 26]: 32 µM (≈ 14.3 µg/mL) |
| CCCCCCOc1cccc(NC(=O)OC(CN(CCC)CCC)CN2CCCC2)c1 (stereo not drawn) [1g] | 4.9446 | 6.6896 | 0.8254 | 4.0776 | 0.6104 | 2.3329 | 0.3679 | 1.3128 | 0.1182 | 0.6213 | −0.2067 | 5.1128 | 16 (≈ 7.16 µg/mL) | 3.8 (≈ 1.7 µg/mL) | 8 (≈ 3.58 µg/mL) | 16 (≈ 7.16 µg/mL) | 15.4 (≈ 6.89 µg/mL) | < 3.8 | 16 (≈ 7.16 µg/mL) | 0.06105 | MIC [2, 23]: 16 µM (≈ 7.16 µg/mL); MIC ([2]; Mycobacterium avium, ATCC25291, cultivation time not given, read-out: MIC MA 330/80): 16 µM (≈ 7.16 µg/mL); MIC [7, 25]: 16 µM (≈ 7.16 µg/mL); MIC [7, 26]: 16 µM (≈ 7.16 µg/mL) |
| CCCCOc1ccccc1NC(=O)OC(CN(CCC)CCC)CN1CCCC1 (stereo not drawn) [1a] | 3.7688 | 5.2060 | 0.7165 | 3.7636 | 0.5756 | 2.4877 | 0.3958 | 1.5878 | 0.2008 | 0.9114 | −0.0403 | 3.7768 | 125 (≈ 52.5 µg/mL) | 53 (≈ 22.2 µg/mL) | 32 (≈ 13.4 µg/mL) | 32 (≈ 13.4 µg/mL) |  | 106 (≈ 44.5 µg/mL) | 62.5 (≈ 26.2 µg/mL) | 0.06464 | MIC [2, 23]: 125 µM (≈ 52.5 µg/mL); MIC [5, 27]: 213 µM (≈ 89.4 µg/mL); MIC [7, 25]: 62.5 µM (≈ 26.2 µg/mL); MIC [7, 26]: 62.5 µM (≈ 26.2 µg/mL) |
| CCCCCCCOc1cccc(NC(=O)OC(CN(CCC)CCC)CN2CCCCCC2)c1.Cl.Cl (stereo not drawn) [1p, 1-[2-[({[3-(heptyloxy)phenyl]amino}carbonyl)-oxy]-3-(dipropylammonio)propyl]azepanium dichloride] | 6.1749 | 14.0734 | 1.1484 | 6.6298 | 0.8215 | 4.0476 | 0.6072 | 1.6036 | 0.2051 | 0.7759 | −0.1102 | 6.2672 |  |  |  |  |  |  |  | 0.05692 | MIC ([2]; 14-day cultivation, read-out: MIC MA 330/80 14-d): 16 µM; MIC [2, 13]: 16 µM; MIC ([3]; read-out: MIC MK DSM 7-d, 7-day cultivation, 37 °C): 3.6 µM; MIC ([4]; 14-day cultivation, read-out: MIC MTv H37Rv 14-d): 4 µM; MIC ([4]; 21-day cultivation, read-out: MIC MTv H37Rv 21-d): 8 µM; MIC [5, 27]: 7.1 µM; MIC [6, 24]: 7.1 µM; MIC ([7]; 7-day cultivation, read-out: MIC MK 235/80 7-d): 8 µM; MIC [7, 20]: 8 µM; MIC [7, 21]: 8 µM; MIC ([7]; Mycobacterium kansasii, ATCC12478, cultivation time not given, read-out: MIC MK 235/80): 8 µM |
